Key:
H1299 (NSCLC) = assay: Apoptosis analysis (Annexin V FITC, flow cytometry); format: cell-based, human; details: 3 days
Protocol: Apoptosis was analyzed by using an Annexin V FITC Apoptosis Detection Kit (Biosource, Camarillo, Calif.), according to the manufacturer's protocol. After treatment with different small molecule compounds at various concentrations for about 3 days, cells were harvested by trypsinization, stained and immediately analyzed by flow cytometry (FACScan; Decton Dickinson, Franklin Lake, N.J.). Early apoptotic cells with exposed phosphatidylserine but intact cell membranes will bind to Annexin V-FITC, but not propidium iodide (PI). Cells in necrotic or late apoptotic stages will be labeled with both Annexin V-FITC and PI. “% apoptotic cells” or “% apoptosis” refers to the combined early and late apoptotic cells.
Flow cytometry was also used to examine apoptosis in several NSCLC cell lines after treatment with small molecule compounds of the invention.

[1] = Pharmacokinetic analysis in mice (i.p. injection); format: in vivo, mouse
Protocol: Three mice were i.p. injected in the abdomens with small molecule compounds FN1-5 at a dose of 30 mg/kg body weight. Then plasma was collected from the tail-vein of each mouse at 10 min, 2 hours, 6 hours and 24 hours after FN1-5 injection.
Similarly, the pharmacokinetic properties of small molecule compound FN1-8 were analyzed (FIG. 21B). Comparing the uptake of FN1-8 to FN1-5, the uptake of FN1-5 after i.p injection seems to be better, by about 2 fold.

[2] = target: T1, GLI2-TAFbd peptide / TAFII31 protein (Homo sapiens, UniProt Q16594); assay: Co-immunoprecipitation of GLI-TAFbd peptide and TAFII31; format: binding
T1 construct: The full-length TAFII31 cDNA insert cloned into the (c-myc-tag)pCDNA3.1 expression vector was used as template; made in house; host or cells: cell-free: TNT quick coupled transcription/translation system (Promega)
Protocol: (§1) The binding between GLI-TAF binding domain peptides (GLI-TAFbd) and TAFII31 protein was quantified by measuring the intensity of each band of an co-immunoprecipitation experiments with arbitrary unit. The binding after DMSO treatment was set to 100% for each GLI-TAFbd peptide. The binding was interfered by FN1-8 in dose-dependent manner: the binding for GLI1-TAFbd was 73.6% and 33.5%, for GLI2-TAFbd was 73.8% and 60%, for GLI3-TAFbd was 71.6% and 28.6%, after treatment with 20 μM and 50 μM FN1-8, respectively. Details are described in Example 35.
(§2) Specifically for this experiment, biotinylated TAF binding domain of GLI proteins, GLI1, GLI2, and GLI3 (see below) were custom synthesized at Genemed Synthesis, Inc. The GLI-TAF binding domain (GLI-TAFbd) peptide sequences were as follows;
(§3) TAFII31 proteins were prepared by using the TNT quick coupled transcription/translation systems (Promega) according to the manufacturer's protocol. The full-length TAFII31 cDNA insert cloned into the (c-myc-tag)pCDNA3.1 expression vector was used as template in this in vitro translation system. An empty (c-myc-tag)pCDNA3.1 expression vector was used as a control. The biotinylated GLI peptides (i.e., the TAF binding domains of three different GLI proteins) were incubated with the TAFII31 protein in the presence or absence of small molecule compound FN1-8 (at 20 μM and 50 μM). Then the biotinylated GLI-peptide-TAFII31 complexes were precipitated with streptavidine agarose followed by immunoblotting with an anti-c-myc antibody (A-14; Santa Cruz Biotech, Inc.; Cao et al., 2001, Science 293:115-120). […] As a control, there was no pull-down of TAFII31 by all three GLI peptides when the empty (c-myc-tag)pCDNA3.1 expression vector was used in in vitro translation system (FIG. 23).

[3] = target: T2, GLI3-TAFbd peptide / TAFII31 protein (Homo sapiens, UniProt Q16594); assay: as above; format: binding
T2 construct: The full-length TAFII31 cDNA insert cloned into the (c-myc-tag)pCDNA3.1 expression vector was used as template; made in house; host or cells: cell-free: TNT quick coupled transcription/translation system (Promega)
Protocol: as §1, §2, §3

[4] = target: T3, GLI1-TAFbd peptide / TAFII31 protein (Homo sapiens, UniProt Q16594); assay: as above; format: binding
T3 construct: The full-length TAFII31 cDNA insert cloned into the (c-myc-tag)pCDNA3.1 expression vector was used as template; made in house; host or cells: cell-free: TNT quick coupled transcription/translation system (Promega)
Protocol: as §1, §2, §3

[5] = test system: NSCLC cells A549, H358, and H322; assay: Time course of cell survival (flow cytometry); format: cell-based, human
Protocol: The time course of cell survival in NSCLC cells A549, H358, and H322 after administration of small molecule compound FN1-8 was analyzed. A549 cells were incubated with 10 μM and 20 μM FN1-8, and H358 and H322 cells were incubated with 15 μM and 30 μM FN1-8, respectively. Then flow cytometry was used to examine the percentage of living and dead cells at different time points. […] In H358 cells, the cell killing effect of FN1-8 is already apparent by 1 day, and in H322 cells by 2 days. (data not shown).

T1 sequence (Q16594 whole entry): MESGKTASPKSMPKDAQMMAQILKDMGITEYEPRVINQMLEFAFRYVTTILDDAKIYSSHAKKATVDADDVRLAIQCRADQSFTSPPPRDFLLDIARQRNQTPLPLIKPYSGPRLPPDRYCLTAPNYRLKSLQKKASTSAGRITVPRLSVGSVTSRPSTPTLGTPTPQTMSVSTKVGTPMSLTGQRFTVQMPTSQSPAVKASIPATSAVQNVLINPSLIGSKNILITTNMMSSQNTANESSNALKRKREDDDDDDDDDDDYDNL
T2 sequence (Q16594 whole entry): as above
T3 sequence (Q16594 whole entry): as above

uptake of FN1-5 relative to FN1-8 ([1]; i.p. injection) | time of uptake into plasma ([1]; i.p., 30 mg/kg) | time within which plasma/serum concentration diminishes ([1]; i.p., 30 mg/kg) | binding of GLI2-TAFbd to TAFII31 (DMSO = 100%) ([2]; 20 μM) | binding of GLI2-TAFbd to TAFII31 (DMSO = 100%) ([2]; 50 μM) | binding of GLI3-TAFbd to TAFII31 (DMSO = 100%) ([3]; 20 μM) | binding of GLI3-TAFbd to TAFII31 (DMSO = 100%) ([3]; 50 μM) | binding of GLI1-TAFbd to TAFII31 (DMSO = 100%) ([4]; 20 μM) | binding of GLI1-TAFbd to TAFII31 (DMSO = 100%) ([4]; 50 μM) | SMILES | % of apoptotic cells (H1299 (NSCLC); H1299, 10 μM) | % of apoptotic cells (H1299 (NSCLC); H1299, 100 μM) | time after which dose-dependent cell killing effect is shown ([5]; A549, 10 μM and 20 μM) | time by which cell killing effect is apparent ([5]; H322, 15 μM and 30 μM) | time by which cell killing effect is apparent ([5]; H358, 15 μM and 30 μM)
about 2 fold | ≤ 10 min | ≤ 24 h | – | – | – | – | – | – | O=C(NCCCCCO)C1C(c2ccccc2)=NN(c2ccccc2)C1c1ccccc1 (centres unmarked) [FN1-5, N-(5-Hydroxypentyl)-1,3,5-triphenyl-4,5-dihydro-pyrazole-4-carboxyamide] | 6.7% | 55.9% | – | – | –
– | – | – | 73.8% | 60% | 71.6% | 28.6% | 73.6% | 33.5% | O=C(NCCc1ccc(O)cc1)C1C(c2ccccc2)=NN(c2ccccc2)C1c1ccccc1 (centres unmarked) [FN1-8, N-(2-(4-Hydroxyphenyl)ethyl)-1,3,5-triphenyl-4,5-dihydro-pyrazole-4-carboxyamide] | – | – | 3 days | ≤ 2 days | ≤ 1 days

Reference: patent publication US7714014B2, “Targeting GLI proteins in human cancer by small molecules” (The Regents of the University of California, priority 2005, dated 2010)
